Values of other authors in patent publication US20220347313A1, “Combination Anti-CD30 ADC, Anti-PD-1 and Chemotherapeutic for Treatment of Hematopoietic Cancers” (SEAGEN, INC., priority 2019, published 2022).

System: CD28, ICOS, CTLA-4 and BTLA

Substance: nivolumab
- binding specificity for PD-1 versus related CD28 family members: binds specifically to PD-1 and not to related members of the CD28 family
